This assay deals with TNF-α. The assay can be described thus: LPS-induced TNF-α assay in human whole blood. It is filed as cell-based. As to conditions: LPS 1 μg/mL, 24 hours at 37° C., TNF-α by ELISA in plasma. The method, then: Whole blood provides a protein and cell-rich milieu appropriate for the study of biochemical efficacy of anti-inflammatory compounds such as PDE4-selective inhibitors. […] Upon stimulation with LPS, activated monocytes express and secrete TNF-α up to 8 hours and plasma levels remain stable for 24 hours. Published studies have shown that inhibition of TNF-α by increasing intracellular cAMP via PDE4 inhibition and/or enhanced adenylyl cyclase activity Occurs at the transcriptional level. […] As there is little LTB4 produced during a 24 hour LPS stimulation of whole blood, an additional LPS stimulation followed by fMLP challenge of human whole blood is necessary for LTB4 synthesis by activated neutrophils. Thus, by using the same blood sample, it is possible to evaluate the potency of a compound on two surrogate markers of PDE4 activity in the whole blood by the following procedure.
Fresh blood was collected in heparinized tubes by venipuncture from healthy human volunteers (male and female). These subjects had no apparent inflammatory conditions and had not taken any NSAIDs for at least 4 days prior to blood collection. 500 μL aliquots of blood were pre-incubated with either 2 μL of vehicle (DMSO) or 2 μL of test compound at varying concentrations for 15 minutes at 37° C. This was followed by the addition of either 10 μL vehicle (PBS) as blanks or 10 μL LPS (1 μg/mL final concentration, #L-2630 (Sigma Chemical Co., St. Louis, Mo.) from E. coli, serotype 0111:B4; diluted in 0.1% w/v BSA (in PBS)). After 24 hours of incubation at 37° C., another 10 μL of PBS (blank) or 10 μL of LPS (1 μg/mL final concentration) was added to blood and incubated for 30 minutes at 37° C. The blood was then challenged with either 10 μL of PBS (blank) or 10 μL of fMLP (1 μM final concentration, #F-3506 (Sigma); diluted in 1% w/v BSA (in PBS)) for 15 minutes at 37° C. The blood samples were centrifuged at 1500×g for 10 minutes at 4° C. to obtain plasma. A 50 μL aliquot of plasma was mixed with 200 μL methanol for protein precipitation and centrifuged as above. The supernatant was assayed for LTB4 using an enzyme immunoassay kit (#520111 from Cayman Chemical Co., Ann Arbor, Mich.) according to the manufacturer's procedure. TNF-α was assayed in diluted plasma (in PBS) using an ELISA kit (Cistron Biotechnology, Pine Brook, N.J.) according to manufacturer's procedure.
For orientation: ELISA stands for enzyme-linked immunosorbent assay.

From US7238706B2, “4-oxo-1-(3-substituted phenyl-1,4-dihydro-1,8-naphthyridine-3-carboxamide phosphodiesterase-4 inhibitors” (Merck Frosst Canada, Ltd., priority 2002, dated 2007) come the findings set out here.

pIC50: −log10 of the molar value.

Usually pIC50 stands for −log10 of the IC50, conventionally taken in molar units. Read a high pIC50 as a low IC50.

As to `O=C(NC1CC1)c1cn(-c2cccc(-c3ccc(CC4(C(=O)O)CCC4)cc3)c2)c2ncccc2c1=O` [Example 30, 1-({3′-[3-[(cyclopropylamino)carbonyl]-4-oxo-1,8-naphthyridin-1(4H)-yl]biphenyl-4-yl}methyl)cyclobutanecarboxylic acid], the pIC50 was 5.74.
In the case of `O=C(NCC(F)(F)F)c1cn(-c2cccc(-c3ccc(C4CC4C(=O)O)c(F)c3)c2)c2ncccc2c1=O` (single isomer, unassigned; (+)) [Example 29, (+)-(trans)-2-{3-fluoro-3′-[4-oxo-3-{[(2,2,2-trifluoroethyl)amino]carbonyl}-1,8-naphthyridin-1(4H)-yl]biphenyl-4-yl}cyclopropanecarboxylic acid] it was 7.00.
In the case of `O=C(NC1CC1)c1cn(-c2cccc(-c3cccc(C4CC4C(=O)O)c3)c2)c2ncccc2c1=O` (stereo not shown) [Example 2, 2-{3′-[3-[(Cyclopropylamino)carbonyl]-4-oxo-1,8-naphthyridin-1(4H)-yl]-1,1′-biphenyl-3-yl}cyclopropanecarboxylic acid] it was 7.00; in that of `O=C(NC1CC1)c1cn(-c2cccc(-c3ccc(C4CC4C(=O)O)c(Cl)c3)c2)c2ncccc2c1=O` (stereo not shown) [Example 17, 2-{3-Chloro-3′-[3-[(cyclopropylamino)carbonyl]-4-oxo-1,8-naphthyridin-1(4H)-yl]1,1′-biphenyl-4-yl}cyclopropanecarboxylic acid], 7.05; in that of `O=C(NC1CC1)c1cn(-c2cccc(-c3ccc([C@@H]4C[C@H]4C(=O)O)cc3)c2)c2ncccc2c1=O` (relative stereo) [Example 1, 2-(trans)-{3′-[3-[(Cyclopropylamino)carbonyl]-4-oxo-1,8-naphthyridin-1(4H)-yl]-1,1′-biphenyl-4-yl}cyclopropanecarboxylic acid], 6.52.
In the case of `O=C(NCC1CC1)c1cn(-c2cccc(-c3ccc(C4CC4C(=O)O)cc3)c2)c2ncccc2c1=O` (stereo not shown) [Example 26, 2-{3′-[3-{[(Cyclopropylmethyl)amino]carbonyl}-4-oxo-1,8-naphthyridin-1(4H)-yl]-1,1′-biphenyl-4-yl}cyclopropanecarboxylic acid], the pIC50 was 6.80.
Consider `O=C(NC1CC1)c1cn(-c2cccc(-c3ccc(C4CC4C(=O)O)c(F)c3)c2)c2ncccc2c1=O` (single isomer, unassigned; (-)) [12-(−)-isomer, (−)-(trans)-2-{3′-[3-[(cyclopropylamino)carbonyl]-4-oxo-1,8-naphthyridin-1(4H)-yl]-3-fluoro-1,1′-biphenyl-4-yl}cyclopropanecarboxylic acid], for which the pIC50 is 6.30.
Next, `CC(C)(CC(=O)O)c1ccc(-c2cccc(-n3cc(C(=O)NC4CC4)c(=O)c4cccnc43)c2)cc1` [Example 5, 3-{3′-[3-[(Cyclopropylamino)carbonyl]-4-oxo-1,8-naphthyridin-1(4H)-yl]-1,1′-biphenyl-4-yl}-3-methylbutanoic acid]: 7.12; `O=C(NC1CC1)c1cn(-c2cccc(-c3ccc([C@H]4C[C@H]4C(=O)O)cc3)c2)c2ncccc2c1=O` (single isomer, unassigned; isomer 2) [8-(−)-isomer, 2-(cis)-{3′-[3-[(Cyclopropylamino)carbonyl]-4-oxo-1,8-naphthyridin-1(4H)-yl]-1,1′-biphenyl-4-yl}cyclopropanecarboxylic acid]: 6.80.
In the case of `O=C(NCC(F)(F)F)c1cn(-c2cccc(-c3ccc([C@@H]4C[C@H]4C(=O)O)cc3)c2)c2ncccc2c1=O` (single isomer, unassigned; (+)) [24-(+)-isomer, (+)-(trans)-2-{3′-[4-oxo-3-{[(2,2,2-trifluoroethyl)amino]carbonyl}-1,8-naphthyridin-1(4H)-yl]biphenyl-4-yl}cyclopropanecarboxylic acid] it was 6.80.
